ChEMBL document CHEMBL1121855, “Potential salicylamide antiplaque agents: in vitro antibacterial activity against Actinomyces viscosus” (J Med Chem, 1981)
Converted amounts (≈) assume the structure as drawn.

Legend:
Actinomyces viscosus [1] = experiment: In vitro antibacterial activity against Actinomyces viscosus M-100-2000; assay type: functional
[2] = Distribution coefficient between octanol and aqueous phase at pH7.2; assay type: physicochemical; conditions: pH 7.2
[3] = Observed inhibitory activity against various Actinomycetes strains; conditions: actinomycetaceae
[4] = Partition coefficient is determined in octanol/buffer solution; assay type: physicochemical
[5] = Dissociation constant is the negative logarithm of the equilibrium coefficient of the neutral and charged forms of the compound; assay type: physicochemical
Actinomyces naeslundii [6] = experiment: In vitro antibacterial activity against Actinomycetes naeslundii 8115; assay type: functional
Actinomyces naeslundii [7] = experiment: In vitro antibacterial activity against Actinomycetes naeslundii 12104; assay type: functional
Actinomyces israelii [8] = experiment: In vitro antibacterial activity against Actinomycetes israelii 28360; assay type: functional
Actinomyces israelii [9] = experiment: In vitro antibacterial activity against Actinomycetes israelii 12836; assay type: functional
Actinomyces israelii [10] = experiment: In vitro antibacterial activity against Actinomycetes israelii 10048; assay type: functional
Actinomyces viscosus [11] = experiment: In vitro antibacterial activity against Actinomycetes viscosus T14V; assay type: functional

Row | MIC (Actinomyces viscosus [1]) | logD [2] | Log 1/MIC [3] | logP ([4]; octanol/buffer, read-out: logP) | pKa [5] | SMILES | further results
1 | 10 µg/mL (≈ 34.2 µM) | 3.78 | 4.47 | 4.13 | 7.1 | O=C(Nc1ccc(Br)cc1)c1ccccc1O | 
2 | 1.5 µg/mL (≈ 4.49 µM) | 5.38 | 5.35 | 5.61 | 7.35 | CCCc1ccc(O)c(C(=O)Nc2ccc(Br)cc2)c1 | 
3 | 0.5 µg/mL (≈ 1.2 µM) |  |  |  |  | O=C(Nc1ccc([N+](=O)[O-])cc1)c1cc(Br)cc(Br)c1O | 
4 | > 40 µg/mL |  |  |  |  | COc1ccc(NC(=O)c2cc(C)ccc2O)cc1 | 
5 | 4 µg/mL (≈ 8.98 µM) |  |  |  |  | O=C(Nc1nc2cc(Cl)ccc2[nH]1)c1cc(Br)cc(Br)c1O | 
6 | > 25 µg/mL |  |  |  |  | COc1ccc(O)c(C(=O)Nc2ccc(Br)cc2)c1 | 
7 | 13 µg/mL (≈ 37.3 µM) | 3.38 | 4.43 | 4.52 | 6.1 | CCC(=O)c1ccc(O)c(C(=O)Nc2ccc(Br)cc2)c1 | 
8 | 0.5 µg/mL (≈ 1.35 µM) | 4.75 | 5.87 | 5.26 | 6.85 | O=C(Nc1ccc(Br)cc1)c1cc(Br)ccc1O [DIBROMSALAN] | 
9 | 1.7 µg/mL (≈ 3.97 µM) |  |  |  |  | O=C(Nc1nc2ccccc2s1)c1cc(Br)cc(Br)c1O | 
10 | 100 µg/mL (≈ 254 µM) |  |  |  |  | Cc1nnc(NC(=O)c2cc(Br)cc(Br)c2O)s1 | 
11 | 0.1 µg/mL (≈ 0.287 µM) | 5.88 | 6.54 | 6.09 | 7.35 | CCCCc1ccc(O)c(C(=O)Nc2ccc(Br)cc2)c1 | 
12 | 0.05 µg/mL (≈ 0.113 µM) |  |  |  |  | CCCCCCCCCCCC(=O)c1ccc(O)c(C(=O)Nc2ccc([N+](=O)[O-])cc2)c1 | 
13 | 45 µg/mL (≈ 128 µM) | 3.46 | 3.94 | 5.06 | 5.6 | Cc1cc(C(=O)Nc2ccc(Br)cc2)c(O)c([N+](=O)[O-])c1 | 
14 | 0.4 µg/mL (≈ 0.949 µM) | 5.96 | 6.02 | 7.56 | 5.6 | CCCCCCc1cc(C(=O)Nc2ccc(Br)cc2)c(O)c([N+](=O)[O-])c1 | 

The remaining lines, values behind:

Row | SMILES | MIC (Actinomyces viscosus [1]) | logD [2] | Log 1/MIC [3] | logP ([4]; octanol/buffer, read-out: logP) | pKa [5] | further results
15 | CCCCCCc1ccc(O)c(C(=O)NCc2ccc(Cl)cc2)c1 | 10 µg/mL (≈ 28.9 µM) |  |  |  |  | 
16 | O=C(NCCCCCCNC(=O)c1ccccc1O)c1ccccc1O | > 20 µg/mL |  |  |  |  | 
17 | CCCCCCCCCC(=O)c1ccc(O)c(C(=O)Nc2nc3ccccc3s2)c1 | 0.5 µg/mL (≈ 1.18 µM) |  |  |  |  | MIC (Actinomyces naeslundii [6]): > 10 µg/mL; MIC (Actinomyces naeslundii [7]): > 10 µg/mL; MIC (Actinomyces israelii [8]): > 10 µg/mL; MIC (Actinomyces israelii [9]): > 10 µg/mL; MIC (Actinomyces israelii [10]): 5 µg/mL (≈ 11.8 µM); MIC (Actinomyces viscosus [11]): 10 µg/mL (≈ 23.6 µM)
18 | CCCCCCCCCCCC(=O)c1ccc(O)c(C(=O)Nc2ccc(Br)cc2)c1 | 0.02 µg/mL (≈ 0.0422 µM) | 7.88 | 7.37 |  | 6.1 | MIC (Actinomyces naeslundii [6]): 1 µg/mL (≈ 2.11 µM); MIC (Actinomyces naeslundii [7]): 0.5 µg/mL (≈ 1.05 µM); MIC (Actinomyces israelii [8]): 0.5 µg/mL (≈ 1.05 µM); MIC (Actinomyces israelii [9]): > 5 µg/mL; MIC (Actinomyces israelii [10]): > 5 µg/mL; MIC (Actinomyces viscosus [11]): 0.5 µg/mL (≈ 1.05 µM); logP ([4]; octanol/water): 9.02
19 | CCCCCCCCCC(=O)c1ccc(O)c(C(=O)Nc2ccc(Br)cc2)c1 | 0.06 µg/mL (≈ 0.134 µM) | 6.88 | 6.87 | 8.02 | 6.1 | 
20 | O=C(Nc1cccc(C(F)(F)F)c1)c1cc(Br)cc(Br)c1O [FLUOROSALAN] | 1 µg/mL (≈ 2.28 µM) |  |  |  |  | MIC (Actinomyces naeslundii [6]): 0.5 µg/mL (≈ 1.14 µM); MIC (Actinomyces naeslundii [7]): 1 µg/mL (≈ 2.28 µM); MIC (Actinomyces israelii [8]): 0.1 µg/mL (≈ 0.228 µM); MIC (Actinomyces israelii [9]): 0.5 µg/mL (≈ 1.14 µM); MIC (Actinomyces israelii [10]): 0.5 µg/mL (≈ 1.14 µM); MIC (Actinomyces viscosus [11]): 0.5 µg/mL (≈ 1.14 µM)
21 | CCCCCCCCCC(=O)c1ccc(O)c(C(=O)Nc2ccc([N+](=O)[O-])cc2)c1 | 0.05 µg/mL (≈ 0.121 µM) |  |  |  |  | MIC (Actinomyces naeslundii [6]): 0.05 µg/mL (≈ 0.121 µM); MIC (Actinomyces naeslundii [7]): 0.5 µg/mL (≈ 1.21 µM); MIC (Actinomyces israelii [8]): 0.05 µg/mL (≈ 0.121 µM); MIC (Actinomyces israelii [9]): 0.05 µg/mL (≈ 0.121 µM); MIC (Actinomyces israelii [10]): 0.05 µg/mL (≈ 0.121 µM); MIC (Actinomyces viscosus [11]): 0.05 µg/mL (≈ 0.121 µM)
22 | CCCCCCCCCCCC(=O)c1ccc(O)c(C(=O)Nc2nc3ccccc3s2)c1 | > 20 µg/mL |  |  |  |  | 
23 | CCCCCCc1ccc(O)c(C(=O)Nc2ccc(Br)cc2)c1 | 0.01 µg/mL (≈ 0.0266 µM) | 6.88 | 7.58 | 7.11 | 7.35 | MIC (Actinomyces naeslundii [6]): 0.1 µg/mL (≈ 0.266 µM); MIC (Actinomyces naeslundii [7]): 1 µg/mL (≈ 2.66 µM); MIC (Actinomyces israelii [8]): 0.1 µg/mL (≈ 0.266 µM); MIC (Actinomyces israelii [9]): 0.5 µg/mL (≈ 1.33 µM); MIC (Actinomyces israelii [10]): 0.1 µg/mL (≈ 0.266 µM); MIC (Actinomyces viscosus [11]): 0.1 µg/mL (≈ 0.266 µM)
24 | CCCCCCc1ccc(O)c(C(=O)NCc2ccc([N+](=O)[O-])cc2)c1 | 0.05 µg/mL (≈ 0.14 µM) |  |  |  |  | MIC (Actinomyces naeslundii [6]): 0.05 µg/mL (≈ 0.14 µM); MIC (Actinomyces naeslundii [7]): 0.05 µg/mL (≈ 0.14 µM); MIC (Actinomyces israelii [8]): 0.1 µg/mL (≈ 0.281 µM); MIC (Actinomyces israelii [9]): 0.1 µg/mL (≈ 0.281 µM); MIC (Actinomyces israelii [10]): 0.5 µg/mL (≈ 1.4 µM); MIC (Actinomyces viscosus [11]): 0.05 µg/mL (≈ 0.14 µM)
25 | CCCCCCCC(=O)c1ccc(O)c(C(=O)Nc2nc3ccccc3s2)c1 | 1 µg/mL (≈ 2.52 µM) |  |  |  |  | 
26 | CCCCCCCCCCc1ccc(O)c(C(=O)Nc2ccc(Br)cc2)c1 | 3.25 µg/mL (≈ 7.52 µM) |  |  |  |  | 
27 | CCCCCCCCCCCCCC(=O)c1ccc(O)c(C(=O)Nc2ccc(Br)cc2)c1 | > 5 µg/mL |  |  |  |  | 
